Tests used:
[1] = commercially available quencher; cited from earlier work
[2] = Photophysical properties of the non-fluorescent compounds in DMSO solvent; format: physicochemical; parameters: εmax: unit not given here; settings: for Quantum Yield(Φ) / εmax / λabs: DMSO solvent
Source text: The photophysical properties measured in DMSO solvent for the non-fluorescent compounds synthesized according to the above synthesis examples are shown in Table 1 below.

SMILES	absorbs light in the range [1]	maximum absorption wavelength [2]	Quantum Yield(Φ) [2]	εmax [2]	λabs [2] [nm]
CCN(CC)c1ccc2nc3ccc(/N=N/c4ccc(N(C)CCCC(=O)O)cc4)cc3[n+](-c3ccccc3)c2c1 [BHQ-3]	650-700 nm	–	–	–	–
C[n+]1c(C=CC=c2c3cccc4cccc(c43)n2CCCCCC(=O)O)sc2ccccc21 [Dye 2]	–	above 650 nm	0.006	28,000	664
Cn1c(=CC=CC2=[N+](CCCCCC(=O)O)c3ccccc3C2(C)C)c2cccc3cccc1c32 [Dye 6]	–	–	0.005	75,000	672
Cn1c(=CC=CC2=Nc3c(ccc[n+]3CCCCCC(=O)O)C2(C)C)c2cccc3cccc1c32 [Dye 12]	–	–	0.002	53,000	676
Cn1c(=CC=CC2=[N+](CCCCCC(=O)O)c3c(ccc4ccccc34)C2(C)C)c2cccc3cccc1c32 [Dye 16]	–	above 650 nm	0.001	68,000	692
CCn1c(=CC=CC2=[N+](CCCC(=O)O)c3c(ccc4c3c3ccccc3n4C)C2(C)C)c2cccc3cccc1c32 [Dye 17]	–	above 650 nm	0.002	37,000	672
CCn1c(=CC=CC=CC2=[N+](CCCCCC(=O)O)c3cc4c(cc3C2(C)C)-c2ccccc2C4(C)C)c2cccc3cccc1c32 [Dye 18]	–	–	0.005	74,000	680
Cn1c(=CC=CC2=[N+](CCCCCC(=O)O)c3ccc4sc5ccccc5c4c3C2(C)C)c2cccc3cccc1c32 [Dye 48]	–	–	0.001	65,000	690
C[n+]1c(C=CC=c2c3cccc4cccc(c43)n2CCCCCC(=O)O)oc2c3ccccc3ccc21 [Dye 60]	–	–	0.007	42,000	600
CC[n+]1c(C=CC=c2c3cccc4cccc(c43)n2CCCCCC(=O)O)sc2ccc3ccccc3c21 [Dye 61]	–	–	0.002	24,000	630

From patent EP4685144A1, “NON-FLUORESCENT COMPOUND AND USES THEREOF” (SFC Co., Ltd., priority 2023, dated 2024)
